Results from patent publication US20200360352A1, “USE OF RIFAMYCIN-NITROIMIDAZOLE COUPLING MOLECULE” (priority 2019, published 2020).
≈ marks a conversion by molar mass, not a printed value. Read-outs that look alike come from different tables or passages of the source. Blank lines part the entries; values can stand above or below the compound they belong to.

How the values were obtained:
Assay type in all cases: cell-based
Mycobacterium avium [1] = assay: MIC, micro broth dilution with resazurin readout; conditions: read-out: Minimum Inhibitory Concentration (MIC)
Mycobacterium abscessus [2] = assay: MIC, micro broth dilution with resazurin readout; conditions: Mycobacteroides abscessus, read-out: Minimum Inhibitory Concentration (MIC)
Mycobacterium kansasii [3] = assay: MIC, micro broth dilution with resazurin readout; conditions: read-out: Minimum Inhibitory Concentration (MIC)
[4] = system: Mycobacterium intracellulare; assay: MIC, micro broth dilution with resazurin readout; conditions: MH Culture Medium, read-out: Minimum Inhibitory Concentration (MIC)
[5] = system: Mycobacterium massiliense; assay: MIC, micro broth dilution with resazurin readout; conditions: Mycobacteroides abscessus, MH Culture Medium, read-out: Minimum Inhibitory Concentration (MIC)
Mycobacterium fortuitum = assay: MIC, micro broth dilution with resazurin readout; conditions: Mycolicibacterium fortuitum, MH Culture Medium, read-out: Minimum Inhibitory Concentration (MIC)
Mycodacterium chelonei = assay: MIC, micro broth dilution with resazurin readout; conditions: MH Culture Medium; Chelonei (standard strain); read-out: Minimum Inhibitory Concentration (MIC)
Mycobacterium avium [6] = assay: MBC, plating of MIC wells and CFU count; conditions: Mycobacterium avium Smooth, read-out: Minimum Bactericidal Concentration (MBC)
Mycobacterium abscessus [7] = assay: MBC, plating of MIC wells and CFU count; conditions: Mycobacteroides abscessus, read-out: Minimum Bactericidal Concentration (MBC)
Mycobacterium kansasii [8] = assay: MBC, plating of MIC wells and CFU count; conditions: read-out: Minimum Bactericidal Concentration (MBC)
[9] = MH Culture Medium, Avium (standard strain)
[10] = MH Culture Medium, clinically isolated strain Avium (S31)
[11] = MH Culture Medium, clinically isolated strain Avium (S123)
[12] = MH Culture Medium, clinically isolated strain Avium (S559)
[13] = MH Culture Medium, clinically isolated strain Avium (S568)
[14] = MH Culture Medium, clinically isolated strain Avium (S577)
[15] = MH Culture Medium, clinically isolated strain Avium (S597)
[16] = MH Culture Medium, clinically isolated strain Avium (S602)
[17] = MH Culture Medium, Kansasii (standard strain)
[18] = MH Culture Medium, clinically isolated strain Kansasii (S9)
[19] = MH Culture Medium, clinically isolated strain Kansasii (S199)
[20] = MH Culture Medium, clinically isolated strain Kansasii (S520)
[21] = MH Culture Medium, clinically isolated strain Kansasii (S609)
[22] = Intracellulare (standard strain)
[23] = clinically isolated strain Intracellulare (S90)
[24] = clinically isolated strain Intracellulare (S261)
[25] = clinically isolated strain Intracellulare (S269)
[26] = clinically isolated strain Intracellulare (S290)
[27] = clinically isolated strain Intracellulare (S291)
[28] = clinically isolated strain Intracellulare (S298)
[29] = clinically isolated strain Intracellulare (S442)
[30] = clinically isolated strain Intracellulare (S541)
[31] = clinically isolated strain Intracellulare (S623)
[32] = clinically isolated strain Intracellulare (ZPS)
[33] = clinically isolated strain Massiliense (D10)
[34] = clinically isolated strain Massiliense (D14)
[35] = clinically isolated strain Massiliense (D18)
[36] = clinically isolated strain Fortuitum (S103)
[37] = clinically isolated strain Fortuitum (S111)

MIC (Mycobacterium avium [1]; 7H9 Broth, Mycobacterium avium Smooth): > 64 µg/mL | MIC (Mycobacterium avium [1]; MH Broth, Mycobacterium avium Smooth): > 64 µg/mL | MIC (Mycobacterium avium [1]; [9]): 8 µg/mL (≈ 46.7 µM) | MIC (Mycobacterium avium [1]; [10]): 16 µg/mL (≈ 93.5 µM) | MIC (Mycobacterium avium [1]; [11]): 8 µg/mL (≈ 46.7 µM) | MIC (Mycobacterium avium [1]; [12]): 8 µg/mL (≈ 46.7 µM) | MIC (Mycobacterium avium [1]; [13]): 8 µg/mL (≈ 46.7 µM) | MIC (Mycobacterium avium [1]; [14]): 8 µg/mL (≈ 46.7 µM) | MIC (Mycobacterium avium [1]; [15]): 8 µg/mL (≈ 46.7 µM) | MIC (Mycobacterium avium [1]; [16]): 32 µg/mL (≈ 187 µM) | MIC (Mycobacterium abscessus [2]; 7H9 Broth): > 64 µg/mL | MIC (Mycobacterium abscessus [2]; MH Broth): > 64 µg/mL | MIC (Mycobacterium kansasii [3]; 7H9 Broth): > 64 µg/mL | MIC (Mycobacterium kansasii [3]; MH Broth): > 64 µg/mL | MIC (Mycobacterium kansasii [3]; [17]): 8 µg/mL (≈ 46.7 µM) | MIC (Mycobacterium kansasii [3]; [18]): 8 µg/mL (≈ 46.7 µM) | MIC (Mycobacterium kansasii [3]; [19]): 8 µg/mL (≈ 46.7 µM) | MIC (Mycobacterium kansasii [3]; [20]): 8 µg/mL (≈ 46.7 µM) | MIC (Mycobacterium kansasii [3]; [21]): 8 µg/mL (≈ 46.7 µM) | MIC [4, 22]: 8 µg/mL (≈ 46.7 µM) | MIC [4, 23]: 16 µg/mL (≈ 93.5 µM) | MIC [4, 24]: 16 µg/mL (≈ 93.5 µM) | MIC [4, 25]: 16 µg/mL (≈ 93.5 µM) | MIC [4, 26]: 8 µg/mL (≈ 46.7 µM) | MIC [4, 27]: 8 µg/mL (≈ 46.7 µM) | MIC [4, 28]: 16 µg/mL (≈ 93.5 µM) | MIC [4, 29]: 8 µg/mL (≈ 46.7 µM) | MIC [4, 30]: 16 µg/mL (≈ 93.5 µM) | MIC [4, 31]: 8 µg/mL (≈ 46.7 µM) | MIC [4, 32]: 8 µg/mL (≈ 46.7 µM) | MIC [5, 33]: 16 µg/mL (≈ 93.5 µM) | MIC [5, 34]: 16 µg/mL (≈ 93.5 µM) | MIC [5, 35]: 8 µg/mL (≈ 46.7 µM) | MIC (Mycobacterium fortuitum; Fortuitum (standard strain)): 16 µg/mL (≈ 93.5 µM) | MIC (Mycobacterium fortuitum; [36]): 8 µg/mL (≈ 46.7 µM) | MIC (Mycobacterium fortuitum; [37]): 16 µg/mL (≈ 93.5 µM) | MIC (Mycodacterium chelonei): 16 µg/mL (≈ 93.5 µM)
SMILES: Cc1ncc([N+](=O)[O-])n1CCO [Metronidazole]
MBC (Mycobacterium avium [6]; 7H9 Broth): > 64 µg/mL | MBC (Mycobacterium avium [6]; MH Broth): > 64 µg/mL | MBC (Mycobacterium abscessus [7]; 7H9 Broth): > 64 µg/mL | MBC (Mycobacterium abscessus [7]; MH Broth): > 64 µg/mL | MBC (Mycobacterium kansasii [8]; 7H9 Broth): > 64 µg/mL | MBC (Mycobacterium kansasii [8]; MH Broth): > 64 µg/mL

MIC (Mycobacterium avium [1]; [9]): 1 µg/mL (≈ 2.49 µM) | MIC (Mycobacterium avium [1]; [10]): 8 µg/mL (≈ 19.9 µM) | MIC (Mycobacterium avium [1]; [11]): 0.5 µg/mL (≈ 1.25 µM) | MIC (Mycobacterium avium [1]; [12]): 1 µg/mL (≈ 2.49 µM) | MIC (Mycobacterium avium [1]; [13]): 0.5 µg/mL (≈ 1.25 µM) | MIC (Mycobacterium avium [1]; [14]): 0.5 µg/mL (≈ 1.25 µM) | MIC (Mycobacterium avium [1]; [15]): 2 µg/mL (≈ 4.98 µM) | MIC (Mycobacterium avium [1]; [16]): 4 µg/mL (≈ 9.96 µM) | MIC (Mycobacterium kansasii [3]; [17]): 0.0625 µg/mL (≈ 0.156 µM) | MIC (Mycobacterium kansasii [3]; [18]): 0.0625 µg/mL (≈ 0.156 µM) | MIC (Mycobacterium kansasii [3]; [19]): 0.0625 µg/mL (≈ 0.156 µM) | MIC (Mycobacterium kansasii [3]; [20]): 0.0625 µg/mL (≈ 0.156 µM) | MIC (Mycobacterium kansasii [3]; [21]): 0.0625 µg/mL (≈ 0.156 µM) | MIC [4, 22]: 0.25 µg/mL (≈ 0.623 µM) | MIC [4, 23]: 2 µg/mL (≈ 4.98 µM) | MIC [4, 24]: 2 µg/mL (≈ 4.98 µM) | MIC [4, 25]: 2 µg/mL (≈ 4.98 µM) | MIC [4, 26]: 2 µg/mL (≈ 4.98 µM) | MIC [4, 27]: 1 µg/mL (≈ 2.49 µM) | MIC [4, 28]: 2 µg/mL (≈ 4.98 µM) | MIC [4, 29]: 2 µg/mL (≈ 4.98 µM) | MIC [4, 30]: 64 µg/mL (≈ 159 µM) | MIC [4, 31]: 2 µg/mL (≈ 4.98 µM) | MIC [4, 32]: 1 µg/mL (≈ 2.49 µM) | MIC [5, 33]: 32 µg/mL (≈ 79.7 µM) | MIC [5, 34]: 32 µg/mL (≈ 79.7 µM) | MIC [5, 35]: 8 µg/mL (≈ 19.9 µM) | MIC (Mycobacterium fortuitum; Fortuitum (standard strain)): 1 µg/mL (≈ 2.49 µM) | MIC (Mycobacterium fortuitum; [36]): 1 µg/mL (≈ 2.49 µM) | MIC (Mycobacterium fortuitum; [37]): 0.5 µg/mL (≈ 1.25 µM) | MIC (Mycodacterium chelonei): 4 µg/mL (≈ 9.96 µM)
SMILES: COc1c(N2C[C@@H]3CCCN[C@@H]3C2)c(F)cc2c(=O)c(C(=O)O)cn(C3CC3)c12 [Moxifloxacin]

MIC (Mycobacterium avium [1]; [9]): 0.0625 µg/mL (≈ 0.0738 µM) | MIC (Mycobacterium avium [1]; [10]): 0.0625 µg/mL (≈ 0.0738 µM) | MIC (Mycobacterium avium [1]; [11]): 0.0625 µg/mL (≈ 0.0738 µM) | MIC (Mycobacterium avium [1]; [12]): 0.0625 µg/mL (≈ 0.0738 µM) | MIC (Mycobacterium avium [1]; [13]): 0.0625 µg/mL (≈ 0.0738 µM) | MIC (Mycobacterium avium [1]; [14]): 0.0625 µg/mL (≈ 0.0738 µM) | MIC (Mycobacterium avium [1]; [15]): 0.0625 µg/mL (≈ 0.0738 µM) | MIC (Mycobacterium avium [1]; [16]): 0.0625 µg/mL (≈ 0.0738 µM) | MIC (Mycobacterium kansasii [3]; [17]): 0.0625 µg/mL (≈ 0.0738 µM) | MIC (Mycobacterium kansasii [3]; [18]): 0.0625 µg/mL (≈ 0.0738 µM) | MIC (Mycobacterium kansasii [3]; [19]): 0.0625 µg/mL (≈ 0.0738 µM) | MIC (Mycobacterium kansasii [3]; [20]): 0.0625 µg/mL (≈ 0.0738 µM) | MIC (Mycobacterium kansasii [3]; [21]): 0.0625 µg/mL (≈ 0.0738 µM) | MIC [4, 22]: 0.0625 µg/mL (≈ 0.0738 µM) | MIC [4, 23]: 0.125 µg/mL (≈ 0.148 µM) | MIC [4, 24]: 0.25 µg/mL (≈ 0.295 µM) | MIC [4, 25]: 0.0625 µg/mL (≈ 0.0738 µM) | MIC [4, 26]: 0.0625 µg/mL (≈ 0.0738 µM) | MIC [4, 27]: 0.0625 µg/mL (≈ 0.0738 µM) | MIC [4, 28]: 0.5 µg/mL (≈ 0.59 µM) | MIC [4, 29]: 0.0625 µg/mL (≈ 0.0738 µM) | MIC [4, 30]: 0.125 µg/mL (≈ 0.148 µM) | MIC [4, 31]: 0.25 µg/mL (≈ 0.295 µM) | MIC [4, 32]: 0.0625 µg/mL (≈ 0.0738 µM) | MIC [5, 33]: > 64 µg/mL | MIC [5, 34]: 64 µg/mL (≈ 75.6 µM) | MIC [5, 35]: 64 µg/mL (≈ 75.6 µM) | MIC (Mycobacterium fortuitum; Fortuitum (standard strain)): 4 µg/mL (≈ 4.72 µM) | MIC (Mycobacterium fortuitum; [36]): 32 µg/mL (≈ 37.8 µM) | MIC (Mycobacterium fortuitum; [37]): 4 µg/mL (≈ 4.72 µM) | MIC (Mycodacterium chelonei): 64 µg/mL (≈ 75.6 µM)
SMILES: CO[C@H]1/C=C/O[C@@]2(C)Oc3c(C)c(O)c4c(c3C2=O)C2=NC3(CCN(CC(C)C)CC3)NC2=C(NC(=O)/C(C)=C\C=C\[C@H](C)[C@H](O)[C@@H](C)[C@@H](O)[C@@H](C)[C@H](OC(C)=O)[C@@H]1C)C4=O [Rifabutin]
